Experimental data as given in patent publication US20020034725A1, “SENSITIZATION OF CELLS TO RADIATION AND AND CHEMOTHERAPY” (priority 1996, published 2002).

Tests used:
FTase = FTase (Homo sapiens, UniProt P49354+P49356); conditions: cited from earlier work
H-ras^v12 = experiment: Western blot of H-ras farnesylation in T24 bladder carcinoma cells; assay type: cell-based, human; conditions: 5 μM
Experimental: FIG. 16A is an image of a Western blot depicting changes in farnesylation of H-ras^v12 following treatment of human bladder carcinoma cells with FTI-277. T24 bladder carcinoma cells were treated with 5 μM of FTI-277 for the times indicated (hours). Samples were harvested and cell lysates were prepared for Western blot analysis using anti-H-ras antibody. Untreated control samples harvested at 0 and 30 hours are shown for comparison.
(§1) Cells were lysed in culture dishes with 1 x reducing Laemmli sample buffer. Samples were boiled, sheared and clarified by centrifugation at 14,000 rpm in a microfuge before storage at −20° C. Samples containing equal amounts of protein were separated on a 12% SDS polyacrylamide gel and electrophoretically transferred to nitrocellulose membranes. Membranes were blocked for 1-2 hours in PBS containing 0.1% Tween-20 and 5% powdered milk before antibody addition. Membranes were probed with monoclonal pan-ras antibody AB-4 (Oncogene Science, Uniondale, N.Y.) at a concentration of 0.5 μg/ml, or with monoclonal H-ras antibody LA069 (1:5000 dilution; Quality Biotech, Camden, N.J.). Detection of protein was accomplished using the ECL chemiluminescence kit (Amersham, Arlington Heights, Ill.). Images were digitized using an Arcus II scanner, and figures were assembled using Adobe Photoshop 3.0.

REF-GG cells = experiment: SF2 by limiting dilution analysis of clonogens; assay type: cell-based, rat; conditions: 5 μM FTI-277
Experimental: FIG. 14B comprises two graphs depicting clonogenic survival of REF-GG cells following treatment with GGTI-298 and irradiation. REF-GG cells were plated at 1 to 5 cells per well in microtiter plates in the absence (top panel) or presence (bottom panel) of 8 μM of the geranylgeranyltransferase inhibitor, GGTI-298. Cells were then irradiated with 2 Gray or were mock irradiated. Cells were re-fed after 24 hours with medium that contained no inhibitor, thus diluting the inhibitor to 0.8 μM. These cells were then incubated for two weeks prior to scoring for colony formation. The data are presented as the natural log of the fraction of negative wells. The surviving fraction at 2 Gray was determined from the differences in the slopes obtained by linear regression of analysis of irradiated and unirradiated cells. The surviving fraction at 2 Gray calculated for cells irradiated after GGTI-298 treatment was 0.64. Control cell surviving fraction after 2 Gray was 0.91. The correlation coefficient for linear regression analysis (r^2) was greater than 0.95 in all cases.
Cells were irradiated with the indicated doses of ionizing radiation and were treated with FTI-277 for 24 hours after irradiation (FIG. 14A). […] The shoulders of the survival curves were reduced as were the overall slopes of the survival curves. […]

[1] = tested on: mouse prostate tumor cells transformed with H-ras^v12 and myc; experiment: Radiation induced apoptosis of mouse prostate tumor cells; assay type: cell-based; conditions: doses which inhibited ras farnesylation, 10 Gray
Experimental: FIG. 13B is a graph depicting the effects of the inhibitor, FTI-277, at the concentrations indicated (μM) on radiation induced apoptosis of prostate tumor cells. Cells were treated with FTI-277 for 24 hours before irradiation with 10 Gray. Apoptosis was quantitated 24 hours after irradiation by scoring for changes in nuclear morphology following staining of the cells with propidium iodide. Panel A depicts prostate tumor cells cultured from a primary tumor. Panel B depicts prostate tumor cells cultured from an isolated metastasis derived from the tumor.
3×10^3 cells/well in 24-well plates were allowed to attach for 12 hours and were then treated with medium containing FTI-277 in DMSO or an equivalent volume of DMSO without inhibitor. Twenty four hours after irradiation with 10 Gray using the irradiator described above, both adherent and non-adherent cells were harvested. Cells were stained with propidium iodide (Muschel et al., 1995, Cancer Res. 55:995-998). A minimum of three independent fields of 100 cells were counted for each sample. Scoring of samples was performed in a double blind manner.

H-ras = experiment: Western blot of ras farnesylation in mouse prostate tumor cells; assay type: cell-based; conditions: primary tumor cells or metastatic clone, 24 hours
Experimental: FIG. 13A is an image of a Western blot depicting the effects of FTI-277 on ras farnesylation in cultured cells derived from a primary and a metastatic tumor following 24 hours of treatment with the inhibitor at the indicated concentrations. Mouse prostate tumor cells transformed with H-ras^v12 and myc oncogenes were treated with the indicated doses (μM) of FTI-277. After 24 hours, samples were harvested for Western blot analysis using an anti-H-ras antibody. The upper band (arrow) corresponds to unfarnesylated H-ras. C denotes controls.
as §1, with “Images were digitized using an Arcus II scanner, and figures were assembled using Adobe Photoshop 3.0.” left out

3.7 and 5R cells = experiment: Cell growth after FTI-277 treatment; assay type: cell-based, rat
Experimental: FIG. 15A is a graph depicting growth of primary REF cells (circles) and 3.7 cells (squares) after FTI-277 treatment. Two×10^5 cells were plated in medium containing 2.5 μM (3.7 cells) or 5 μM (REF cells) of FTI-277. […] Cells were harvested from replicate dishes at one day intervals and counted using a hemocytometer to determine the total cell number in each culture. Open symbols: DMSO (drug carrier) treated cells; closed symbols: FTI-277 treated cells.
FIG. 15B is a graph depicting growth of MR4 cells (circles) and 5R cells (squares) following treatment with FTI-277 treatment. Three×10^5 cells were plated in medium containing 5 μM FTI-277. Cells were harvested from replicate dishes at one day intervals and counted using a hemocytometer to determine the total cell number in each culture. Open symbols: DMSO (drug carrier) treated cells; closed symbols: 5 μM FTI-277 treated cells.

COC(=O)[C@H](CCSC)NC(=O)c1ccc(NC[C@@H](N)CS)cc1-c1ccccc1 [FTI-277]
FTase inhibition (FTase): inhibited Ftase activity
time after which unfarnesylated H-ras was detectable (H-ras^v12): 5 h
time required to achieve 50% of ras in the unfarnesylated form (H-ras^v12): 24 h
SF2 (surviving fraction at 2 Gray) (REF-GG cells): 0.81
radiation-induced apoptosis [1]: significant increase in apoptosis
H-ras farnesylation (H-ras): dose-dependent reduction of the farnesylated form
cell growth (3.7 and 5R cells; 3.7 cells, conditions of radiation survival experiments): some inhibition of cell growth
increase in cell number (3.7 and 5R cells; 3.7 cells, day 4 after drug treatment): fifty-fold increase in cell number
cell growth (3.7 and 5R cells; 5R cells, 5 μM): more resistant to growth inhibition
